Results on one sequence are retold here after publication PMC9088798, “An Approach to Derive Functional Peptide Inhibitors of Transcription Factor Activity” (JACS Au, 2022).

As a reminder, the Kd is a measure of binding affinity in units of concentration. Read a high Kd as lower affinity. Broadly, the IC50 is the concentration that gives 50% inhibition. A high value points to weaker potency.

One assay has as its target T1, cJun (Homo sapiens, UniProt P05412).
T1 construct: The human cJun bZIP domain spans from Arg252 to Leu308; His-SUMO (N, cleaved yes); AS cap (two residues Ala-Ser) (N); GAP cap (three residues Gly-Ala-Pro) (C); made in house; host or cells: E. coli (pET21-His-SUMO plasmid)
As to the kind of experiment: Isothermal titration calorimetry, binding to cJun. Conditions: ITC, average of two independent experiments, one SD. The method, then: Isothermal Titration Calorimetry (ITC): Peptides were studied in an ITC buffer consisting of 10 mM potassium phosphate, 150 mM potassium fluoride and 5 mM TCEP at pH 7.4. Using a MicroCal VP-ITC instrument (Malvern), 10 µL injections of antagonist peptide (HingeW or A-FosW) at 10 µM were injected into the cell containing cJun at 1 µM.
MicroCal Origin software was used to record and analyse the heat change upon addition.
Control experiments involved the injection of the antagonist peptide sample into the cell containing ITC buffer alone to determine the heat of dilution which was subtracted. The resulting binding data were fit to a one site binding model to extract the enthalpy change of binding (ΔH) and the equilibrium binding constant (K D), from which the free energy change of binding (ΔG) and the entropy change of binding (ΔS) was calculated (41).
Thermodynamic parameters are presented as an average of two independent experiments with errors given as one standard deviation. […]

Assay [1] deals with T2, cJun bZIP/TRE DNA interaction (Homo sapiens, UniProt P05412).
T2 construct: The human cJun bZIP domain spans from Arg252 to Leu308; His-SUMO (N, cleaved yes); AS cap (two residues Ala-Ser) (N); GAP cap (three residues Gly-Ala-Pro) (C); made in house; host or cells: E. coli (pET21-His-SUMO plasmid)
T2 sequence (P05412 252-308): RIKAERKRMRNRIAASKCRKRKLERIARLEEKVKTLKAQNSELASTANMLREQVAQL
Put plainly: EMSA, antagonism of cJun/TRE DNA interaction. It counts as biochemical. The settings on record: cJun bZIP 20 μM, TRE DNA 2 μM, free DNA band intensity, 4°C 30 minutes, pH 8, 1.3% agarose gel; Hill equation; three independent experiments, one SD. The text has this: Figure 6 HingeW antagonizes cJun/TRE DNA interaction more effectively than A-FosW. (A) CD spectra showing a shift in the TRE DNA peak at ∼281 nm upon addition of cJun, which is reversed by the titration of HingeW into the sample, as HingeW sequesters the cJun in a nonfunctional heterodimer. […] EMSA showing the (C) unbound TRE DNA band shift upon addition of cJun and the subsequent restoration of the unbound DNA band intensity upon titration of either (D) HingeW or (E) A-FosW. (F). For both CD and EMSA, data was averaged from three independent experiments and the plotted error bars indicate one standard deviation.
To provide further evidence of functional antagonism, an electrophoretic mobility shift assay (EMSA) was employed. […] No bound cJun/TRE DNA band was observed as the overall charge of this complex prohibited entry into the gel. Antagonism was therefore best observed by monitoring the intensity of the free DNA band. […]
Control experiments involved the injection of the antagonist peptide sample into the cell containing ITC buffer alone to determine the heat of dilution which was subtracted. The resulting binding data were fit to a one site binding model to extract the enthalpy change of binding (ΔH) and the equilibrium binding constant (K D), from which the free energy change of binding (ΔG) and the entropy change of binding (ΔS) was calculated (41). […]
For orientation: A gel shift assay detects complexes by their altered migration in electrophoresis.

T1 sequence (P05412 252-308): as above

With “LEQRAEELARENEELEKEAEELEQELDELQAEIEQLEERNYALRKEIEDLQKQLEKL [A-FosW, N-terminal AS and C-terminal GAP caps, 6xHis-tagged]”, the Kd on cJun (10 µM antagonist peptide injected into 1 µM cJun, 10 mM potassium phosphate, 150 mM KF, 5 mM TCEP, pH 7.4, one site model) was 0.0883 ± 0.0176 µM. At cJun, this sequence came in with a TΔS of −112.6 ± 4.1 kJ mol^–1 and a ΔH of −152.6 ± 4.1 kJ mol^–1. Also, the “N (binding stoichiometry)” value on cJun (single-site binding model) is 1.04 ± 0.08. The sequence further registered an IC50 in assay [1] of 12.1 ± 1.9 µM.
